Assay results taken from patent publication US8980848B2, “Flavonoid dimers and their use” (The Hong Kong Polytechnic University, priority 2010, dated 2015).

Columns and labels:
[1] = Tumor cell line cytotoxicity of flavonoid dimers, LCC6MDR; assay type: cell-based, human; conditions: human, LCC6MDR cells, IC50 of compound alone
Procedure: (§1) (b) Tumor Cell Line Cytotoxicity. The tumor cytotoxicity assays of flavonoid dimers were performed against LCC6, LCC6MDR and L929 cell lines. […] In brief, LCC6, LCC6MDR and L929 cells were seeded into 96-well flat bottom microtiter plate at 1×10^4 cells per well in a final volume of 100 μL media, respectively. A graded dose of flavonoid dimers was added into wells. The plate was incubated at 37° C. for 72 hrs at the atmosphere 5% CO2 in the air. The % of survivors was determined.

[2] = Tumor cell line cytotoxicity of flavonoid dimers, LCC6; assay type: cell-based, human; conditions: human, LCC6 cells, IC50 of compound alone
Procedure: as §1

[3] = Cytotoxicity of flavonoid dimers, L929 mouse fibroblast; assay type: cell-based; conditions: mouse, L929 fibroblast cells, IC50 of compound alone, 72 hrs, mouse fibroblast
Procedure: as §1

Pgp (LCC6MDR cells) = Pgp (LCC6MDR cells) (Homo sapiens, UniProt P08183); experiment: Cell proliferation assay: Pgp-modulating activity, reversal of anticancer drug resistance in LCC6MDR cells; conditions: for RF (Relative Fold), cpd at 0.5 μM: RF = (IC50 without modulator)/(IC50 with 0.5 μM modulator); for RF (Relative Fold), cpd at 0.5 μM / RF (Relative Fold), cpd at 1 μM: paclitaxel; for RF (Relative Fold), cpd at 0.5 μM / RF (Relative Fold), cpd at 1 μM / EC50: LCC6MDR; for RF (Relative Fold), cpd at 1 μM: RF = (IC50 without modulator)/(IC50 with 1.0 μM modulator); for EC50: EC50 of compounds for reversing anticancer drug resistance (nM), Paclitaxel; for Therapeutic index: IC50 of compounds for L929/EC50 of compounds for lowering paclitaxel drug resistance
Pgp (LCC6MDR cells), sequence (P08183 whole entry): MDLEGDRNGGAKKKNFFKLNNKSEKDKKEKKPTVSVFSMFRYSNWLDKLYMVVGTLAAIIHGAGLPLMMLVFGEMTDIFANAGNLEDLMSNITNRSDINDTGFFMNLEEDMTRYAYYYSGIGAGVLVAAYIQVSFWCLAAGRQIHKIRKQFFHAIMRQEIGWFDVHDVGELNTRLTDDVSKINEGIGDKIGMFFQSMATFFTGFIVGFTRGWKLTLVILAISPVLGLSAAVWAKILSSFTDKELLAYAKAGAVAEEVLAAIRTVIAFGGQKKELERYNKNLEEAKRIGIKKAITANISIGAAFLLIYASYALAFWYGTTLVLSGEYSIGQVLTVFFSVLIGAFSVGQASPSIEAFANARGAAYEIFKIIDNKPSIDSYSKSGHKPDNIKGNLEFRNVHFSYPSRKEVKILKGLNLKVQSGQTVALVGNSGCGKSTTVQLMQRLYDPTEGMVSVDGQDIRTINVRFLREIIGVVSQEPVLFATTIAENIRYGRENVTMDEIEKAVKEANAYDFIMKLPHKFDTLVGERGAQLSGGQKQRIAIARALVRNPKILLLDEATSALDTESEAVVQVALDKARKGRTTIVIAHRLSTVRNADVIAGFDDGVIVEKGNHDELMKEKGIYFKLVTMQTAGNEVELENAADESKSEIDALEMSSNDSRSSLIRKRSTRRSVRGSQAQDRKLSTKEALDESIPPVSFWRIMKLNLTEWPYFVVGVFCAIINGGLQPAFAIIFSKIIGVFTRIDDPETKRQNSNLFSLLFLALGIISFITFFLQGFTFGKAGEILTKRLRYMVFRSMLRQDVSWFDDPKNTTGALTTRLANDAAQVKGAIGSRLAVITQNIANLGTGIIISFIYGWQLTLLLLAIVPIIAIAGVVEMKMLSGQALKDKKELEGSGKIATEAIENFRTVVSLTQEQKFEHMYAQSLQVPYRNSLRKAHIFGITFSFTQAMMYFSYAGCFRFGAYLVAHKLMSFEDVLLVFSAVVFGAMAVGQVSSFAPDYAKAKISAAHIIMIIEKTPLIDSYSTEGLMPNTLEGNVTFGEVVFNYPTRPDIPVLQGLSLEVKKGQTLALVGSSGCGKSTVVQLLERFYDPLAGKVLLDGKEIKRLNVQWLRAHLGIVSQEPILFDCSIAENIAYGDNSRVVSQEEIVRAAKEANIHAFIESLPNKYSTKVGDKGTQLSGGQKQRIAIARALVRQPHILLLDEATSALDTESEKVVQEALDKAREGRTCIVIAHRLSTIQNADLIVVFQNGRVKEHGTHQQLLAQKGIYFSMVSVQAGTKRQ
Procedure: Cell Proliferation Assay. 6,000 cells of LCC6 or LCC6MDR and anticancer drugs (paclitaxel, vinblastine, vincristine, doxorubicin and mitoxantrone) were mixed with or without modulators to a final volume of 200 μL in each well of 96-well plates. […] The plates were then incubated for 5 days at 37° C. […] IC50 values were calculated from the dose-response curves of MTS assays (Prism 4.0).

Row | EC50 (Pgp (LCC6MDR cells)) [nM] | SMILES | IC50 at 72 h [1] [µM] | IC50 at 72 h [2] [µM] | IC50 at 72 h [3] [µM] | RF (Relative Fold), cpd at 0.5 μM (Pgp (LCC6MDR cells)) | RF (Relative Fold), cpd at 1 μM (Pgp (LCC6MDR cells)) | Therapeutic index (Pgp (LCC6MDR cells))
1 |  | N#Cc1ccc(CN(CCOCCOc2ccc(-c3cc(=O)c4ccccc4o3)cc2)CCOCCOc2ccc(-c3cc(=O)c4ccccc4o3)cc2)cc1 [Compound 51, 1,13-Bis[4′-(4H-chromen-4-on-2-yl)phenyl]-7-(4-cyanobenzyl)-1,4,10,13-tetraoxa-7-azamidecane] | > 100 | > 100 | 25.2 ± 12.4 | (2.6) | (5.9) | 
2 |  | C=Cc1ccc(CN(CCOCCOc2ccc(-c3cc(=O)c4ccccc4o3)cc2)CCOCCOc2ccc(-c3cc(=O)c4ccccc4o3)cc2)cc1 [Compound 52, 1,13-Bis[4′-(4H-chromen-4-on-2-yl)phenyl]-7-(4-vinylbenzyl)-1,4,10,13-tetraoxa-7-azamidecane] | 28.3 ± 8.2 | 21 ± 4.7 | 7.4 ± 1 | (72.9) | (117.8) | 
3 |  | O=C(c1ccccc1)N(CCOCCOc1ccc(-c2cc(=O)c3ccccc3o2)cc1)CCOCCOc1ccc(-c2cc(=O)c3ccccc3o2)cc1 [Compound 23d, 1,13-Bis[4′-(4H-chromen-4-on-2-yl)phenyl]-7-(benzoyl)-1,4,10,13-tetraoxa-7-azamidecane] | > 100 | > 100 | 95 | (7.5) |  | 
4 |  | O=c1cc(-c2ccc(OCCOCCN(CCOCCOc3ccc(-c4cc(=O)c5ccccc5o4)cc3)Cc3ccccc3Cl)cc2)oc2ccccc12 [Compound 50, 1,13-Bis[4′-(4H-chromen-4-on-2-yl)phenyl]-7-(2-chlorobenzyl)-1,4,10,13-tetraoxa-7-azamidecane] | > 100 | > 100 | > 100 | (11.9) | (95.7) | 
5 |  | Cc1ccccc1CN(CCOCCOc1ccc(-c2cc(=O)c3ccccc3o2)cc1)CCOCCOc1ccc(-c2cc(=O)c3ccccc3o2)cc1 [Compound 46, 1,13-Bis[4′-(4H-chromen-4-on-2-yl)phenyl]-7-(2-methylbenzyl)-1,4,10,13-tetraoxa-7-azamidecane] | > 100 | > 100 | > 100 | (32.6) | (117.8) | 
6 |  | O=c1cc(-c2ccc(OCCOCCN(CCOCCOc3ccc(-c4cc(=O)c5ccccc5o4)cc3)c3ccccc3)cc2)oc2ccccc12 [Compound 64h, 1,13-Bis[4′-(4H-chromen-4-on-2-yl)phenyl]-7-(phenyl)-1,4,10,13-tetraoxa-7-azamidecane] | > 100 | > 100 | > 100 | (11.6) | (72.9) | 
7 |  | O=c1cc(-c2ccc(OCCOCCN(CCOCCOc3ccc(-c4cc(=O)c5ccccc5o4)cc3)Cc3ccnc(Br)c3)cc2)oc2ccccc12 [Compound 64b, 1,13-Bis[4′-(4H-chromen-4-on-2-yl)phenyl]-7-(4-(2-bromopyridyl)methyl)-1,4,10,13-tetraoxa-7-azamidecane] | > 100 | > 100 | > 100 | (8.4) | (76.6) | 
8 |  | Cc1cccc(CN(CCOCCOc2ccc(-c3cc(=O)c4ccccc4o3)cc2)CCOCCOc2ccc(-c3cc(=O)c4ccccc4o3)cc2)c1 [Compound 45, 1,13-Bis[4′-(4H-chromen-4-on-2-yl)phenyl]-7-(3-methylbenzyl)-1,4,10,13-tetraoxa-7-azamidecane] | > 66 | 57.7 ± 5.9 | 55 ± 4.4 | (32.6) | (102.1) | 
9 |  | CC(C)(C)CC(=O)N(CCOCCOc1ccc(-c2cc(=O)c3ccccc3o2)cc1)CCOCCOc1ccc(-c2cc(=O)c3ccccc3o2)cc1 [Compound 33, 1,13-Bis[4′-(4H-chromen-4-on-2-yl)phenyl]-7-(tert-butylacetyl)-1,4,10,13-tetraoxa-7-azamidecane] | > 100 | > 100 | > 100 | (18.9) |  | 
10 |  | O=c1c(OCc2ccccc2)c(-c2ccc(OCCOCCNCCOCCOc3ccc(-c4oc5ccccc5c(=O)c4OCc4ccccc4)cc3)cc2)oc2ccccc12 [Compound 12e, 1,13-Bis[4′-((3-benzyloxy)-4H-chromen-4-on-2-yl)phenyl]-1,4,10,13-tetraoxa-7-azamidecane] | 4.4 ± 0.1 | 4.3 ± 0.5 | 4.2 | (54.7) |  | 
11 |  | O=c1cc(-c2ccc(OCCOCCN(CCOCCOc3ccc(-c4cc(=O)c5ccccc5o4)cc3)Cc3cccc(Cl)c3)cc2)oc2ccccc12 [Compound 48, 1,13-Bis[4′-(4H-chromen-4-on-2-yl)phenyl]-7-(3-chlorobenzyl)-1,4,10,13-tetraoxa-7-azamidecane] | > 98 | > 100 | > 100 | (19.6) | (80.6) | 
12 |  | O=c1cc(-c2ccc(OCCOCCN(CCOCCOc3ccc(-c4cc(=O)c5ccccc5o4)cc3)Cc3cccc(-c4ccccc4)c3)cc2)oc2ccccc12 [Compound 56, 1,13-Bis[4′-(4H-chromen-4-on-2-yl)phenyl]-7-(3-phenylbenzyl)-1,4,10,13-tetraoxa-7-azamidecane] | > 100 | > 100 | > 100 | (2.7) | (38.5) | 
13 |  | O=c1cc(-c2ccc(OCCOCCN(CCOCCOc3ccc(-c4cc(=O)c5ccccc5o4)cc3)Cc3nc4ccccc4[nH]3)cc2)oc2ccccc12 [Compound 60, 1,13-Bis[4′-(4H-chromen-4-on-2-yl)phenyl]-7-(2-benzimidazolylmethyl)-1,4,10,13-tetraoxa-7-azamidecane] | > 100 | > 100 | > 70 | (21.9) | (117.8) | 
14 | 140 ± 12 | CC(=O)Oc1ccc(CN(CCOCCOc2ccc(-c3cc(=O)c4ccccc4o3)cc2)CCOCCOc2ccc(-c3cc(=O)c4ccccc4o3)cc2)cc1 [Compound 42c, 1,13-Bis[4′-(4H-chromen-4-on-2-yl)phenyl]-7-(4-acetyloxybenzyl)-1,4,10,13-tetraoxa-7-azamidecane] | 5.9 ± 0.7 | 6.6 ± 1 | 4.5 ± 0.1 | (95.7) | (117.8) | 32.1
15 | 92 ± 11 | O=c1cc(-c2ccc(OCCOCCN(CCOCCOc3ccc(-c4cc(=O)c5ccccc5o4)cc3)Cc3ccc4ccccc4c3)cc2)oc2ccccc12 [Compound 58, 1,13-Bis[4′-(4H-chromen-4-on-2-yl)phenyl]-7-(2-naphthalenylmethyl)-1,4,10,13-tetraoxa-7-azamidecane] | 8.9 ± 3.3 | 4.8 ± 0.4 | 5.1 ± 0.3 | (95.7) | (117.8) | 55.4
16 |  | O=c1cc(-c2ccc(OCCOCCN(CCOCCOc3ccc(-c4cc(=O)c5ccccc5o4)cc3)Cc3ccc4ccccc4n3)cc2)oc2ccccc12 [Compound 64g, 1,13-Bis[4′-(4H-chromen-4-on-2-yl)phenyl]-7-(2-quinolinylmethyl)-1,4,10,13-tetraoxa-7-azamidecane] | > 100 | > 100 | 8.5 ± 2.3 | (66.6) | (102.1) | 
17 | 246 ± 66 | O=c1cc(-c2ccc(OCCOCCN(CCOCCOc3ccc(-c4cc(=O)c5ccccc5o4)cc3)Cc3ccc(F)cc3F)cc2)oc2ccccc12 [Compound 40, 1,13-Bis[4′-(4H-chromen-4-on-2-yl)phenyl]-7-(2,4-difluorobenzyl)-1,4,10,13-tetraoxa-7-azamidecane] | > 100 | > 100 | > 100 | (32.6) | (117.8) | >406.5
18 |  | O=c1cc(-c2ccc(OCCOCCNCCOCCOc3ccc(-c4cc(=O)c5cc(F)ccc5o4)cc3)cc2)oc2ccc(F)cc12 [Compound 12f, 1,13-Bis[4′-((6-fluoro)-4H-chromen-4-on-2-yl)phenyl]-1,4,10,13-tetraoxa-7-azamidecane] | 3.3 ± 0.5 | 5.3 ± 1 | 5.7 ± 0.4 | (72.9) | (109.4) | 
19 |  | O=c1cc(-c2ccc(OCCOCCN(CCOCCOc3ccc(-c4cc(=O)c5ccccc5o4)cc3)Cc3cc4c(cc3Cl)OCO4)cc2)oc2ccccc12 [Compound 42f, 1,13-Bis[4′-(4H-chromen-4-on-2-yl)phenyl]-7-[5-(6-chloropiperonyl)]-1,4,10,13-tetraoxa-7-azamidecane] | > 100 | > 100 | > 100 | (4.8) | (80.6) | 
